The source of these data is patent publication US11213522B2, “Autoimmune-induced glutamatergic receptor dysfunction methods and treatments” (SARAH HERZOG MEMORIAL HOSPITAL EZRAT NASHIM ASSOCIATION, priority 2013, dated 2022).

Data set [1] has as its system patient positive for anti-NR1 NMDAR antibodies. The data set is described as follows: Tower of London (ToL). The data set is classed as in vivo, human. The settings on record: post-6 weeks D-serine. How it is done:
(§1) The trial consisted of two periods, starting with a 2 week lead-in/stabilization period (−2-0) following which the patient was entered in the second period of the study which consisted of a 6 week (0-6), open-label, fixed dose therapy phase. During this phase, the patient received adjuvant treatment with DSR, whose dose was increased from 1500 mg/day (week 1) to 2000 mg/day (weeks 2 and 3) to 3000 mg/day (weeks 4 and 5) and to 4000 mg/day (week 6). The doses of the ongoing medication received by the patient remained fixed throughout the study and no changes in medication were performed.
(§2) In addition, cognitive performance was assessed pre- and post DSR treatment. For this purpose, a 1.5-hour neurocognitive assessment battery (nine computerized and two paper/pencil tests) was employed that measures accuracy and speed of performance in major cognition domains, including attention/vigilance, planning, short-term and working memory, decision making, abstraction and mental flexibility. All the tests were formatted like games and puzzles, and were administered to the patient as part of the comprehensive neuropsychiatric assessment at baseline and the end of study. The neurocognitive battery included the 1) Test of Attentional Vigilance (TOAV, (Forbes, 1998, Journal of Clinical Psychology 54:461-476; Greenberg, 1993, Journal of Child Psychology and Psychiatry 34: 1019-30)); 2) Tower of London (TOL, (Shailice, 1982, Specific impairments of planning Philosophical Transactions of the Royal Society of London. Series B, Biological Sciences 298:199-209); 3-4) Digit Span Test (DST, forward and backward (Wechsler 1997, The Wechsler adult intelligence scale-III. San Antonio, Tex.: Psychological Corporation; Kaplan 1991, The WAIS-R as a neuropsychological instrument. San Antonio, Tex.: The Psychological Corporation; Lamar et al., 2007, Neuropsychologia 45:245-54; Lamar et al., 2008, Neuropsychologia 46:2597-601)); 5-6) Corsi Block Tapping Test (CBTT, forward and backward, (Corsi, 1972, Dissertation Abstracts International. 34:819B; Kessels et al., 2000, Applied Neuropsychology 7:252-58, Kessels et al., 2008, Assessment 15:426-34)); 7) Flanker Task (Erikson and Eriksen, 1974; Perception & Psychophysics 25: 249-63, Stins et. al., 2007, Advances in Cognitive Psychology 3:389-96); 8) Time Wall (Perez et al., 1987, Unified Tri-services cognitive performance assessment battery: review and methodology; DTIC Document ADA181697, http://www.dtic.mil/dtic/tr/fulltext/u2/a81697.pdf); and Wisconsin Card Sort Test (WCST, (Berg, 1948, J Gen Psychol39:15-22; Nelson, 1976, Cortex 12:313-24)). […]

For data set [2] the test system is unchanged. In words: Flanker Task. The data set is classed as in vivo, human. The settings on record: post-6 weeks D-serine. The method, then:
as §1
In addition, cognitive performance was assessed pre- and post DSR treatment. For this purpose, a 1.5-hour neurocognitive assessment battery (nine computerized and two paper/pencil tests) was employed that measures accuracy and speed of performance in major cognition domains, including attention/vigilance, planning, short-term and working memory, decision making, abstraction and mental flexibility. All the tests were formatted like games and puzzles, and were administered to the patient as part of the comprehensive neuropsychiatric assessment at baseline and the end of study. The neurocognitive battery included the 1) Test of Attentional Vigilance (TOAV, (Forbes, 1998, Journal of Clinical Psychology 54:461-476; Greenberg, 1993, Journal of Child Psychology and Psychiatry 34: 1019-30)); 2) Tower of London (TOL, (Shailice, 1982, Specific impairments of planning Philosophical Transactions of the Royal Society of London. Series B, Biological Sciences 298:199-209); 3-4) Digit Span Test (DST, forward and backward (Wechsler 1997, The Wechsler adult intelligence scale-III. San Antonio, Tex.: Psychological Corporation; Kaplan 1991, The WAIS-R as a neuropsychological instrument. San Antonio, Tex.: The Psychological Corporation; Lamar et al., 2007, Neuropsychologia 45:245-54; Lamar et al., 2008, Neuropsychologia 46:2597-601)); 5-6) Corsi Block Tapping Test (CBTT, forward and backward, (Corsi, 1972, Dissertation Abstracts International. 34:819B; Kessels et al., 2000, Applied Neuropsychology 7:252-58, Kessels et al., 2008, Assessment 15:426-34)); 7) Flanker Task (Erikson and Eriksen, 1974; Perception & Psychophysics 25: 249-63, Stins et. al., 2007, Advances in Cognitive Psychology 3:389-96); 8) Time Wall (Perez et al., 1987, Unified Tri-services cognitive performance assessment battery: review and methodology; DTIC Document ADA181697, http://www.dtic.mil/dtic/tr/fulltext/u2/a81697.pdf); and Wisconsin Card Sort Test (WCST, (Berg, 1948, J Gen Psychol39:15-22; Nelson, 1976, Cortex 12:313-24)). In addition to the nine computerized tests, the patient completed two paper/pencil tests: 10-11) part A and part B of the Trail-Making-Test (TMT, (Reitan, 1958, Percept. Mot Skills 8:271-76; Reitan, 1992 Trail Making Test: Manual for administration and scoring. Tucson, Ariz.: Reitan Neuropsychology Laboratory)) according to the guidelines presented by Spreen and Strauss (1998)). All neurocognitive testing was completed in a private and quiet setting to limit any distractions.

Data set [3] has the same test system. The data set is described as follows: Side effects and tolerability (UKU Side Effect Rating Scale, medical work-up), D-serine clinical trial. The data set is classed as in vivo, human. The following applies: throughout the study; 1500 to 4000 mg/day over 6 weeks, adjuvant. How it is done: as §1
(§3) The patient underwent prior to entering the study and at study weeks 3 and 6 a medical work-up including complete medical history, and routine clinical blood work, including blood count+differential, lipids, and glucose levels, kidney, thyroid, and liver function parameters, urinalysis, and blood pressure measurements. Abdominal ultrasound was performed prior to study entry and electroencephalogram (EEG) and brain magnetic resonance imaging (MR1) were obtained pre- and post-DSR administration.
The assessment procedures used in the study included clinical and neurocognitive examinations. Motor and psychiatric symptoms as well as side-effects were rated biweekly throughout the study. […] In conjunction with UKU ratings, patient's vital signs and body weight were monitored throughout the study.

Data set [4] has the same test system. The data set is described as follows: Corsi Block Tapping Test (CBTT), forward and backward. The settings on record: post-6 weeks D-serine. The data set is classed as in vivo, human. The method, then:
as §1, §2

Data set [5] has the same test system. In words: Electroencephalogram (EEG) pre- and post-DSR administration. It is filed as in vivo, human. How it is done: as §1, §3
Data set [6] deals with Rodent neuron cell cultures treated with anti-NMDAR antibodies. In words: Example 3: NMDAR localization in neuron cultures treated with anti-NMDAR antibodies. The following applies: D-Serine 50-200 uM; histological measurements. The data set is classed as cell-based. The method, then: Rodent neuron cell cultures are treated with anti-NMDAR antibodies as described in Hughes E G et al., J Neurosci 2012 30(17):5866-75. […] The determination of receptors localization and other relevant measures is based on histological measurements.
Immunohistochemical methods will be applied to document (a) localization of NMDAR and NR1 and NR2 subunits; (b) loss of oligodendrocytes; (c) changes in astrocytes (S100beta) and microglia (cd11b), (d) expression of neurotrophic factors: brain derived neurotrophic factor (BDNF), nerve growth factor (NGF) and ciliary neurotrophic factor (CNTF); (e) markers of neurogenesis—doublecortin (17) and apoptosis—caspase3 (9). Quantification of histological measurements is based on images in several cortical subregions, striatum, […], hippocampus, and cerebellum.

For the compound `N[C@H](CO)C(=O)O` [D-serine], the “ToL correctly solved trials, total (0-12)” value in data set [1] (pre-treatment 6) is recorded as 4. Also, the “ToL preplanning time, mean ± SD” value in data set [1] (pre-treatment 15.48 ± 4.43) was determined as 11.24 ± 4.73 s. Besides, in data set [1] (pre-treatment 22.57 ± 11.998), the “ToL movement execution time, mean ± SD” value was 19.30 ± 15.42 s. In data set [1] (pre-treatment 456.582), the “ToL total time (0-720 seconds)” value was determined as 366.415 s. In addition, the “Flanker Task Incongruous accuracy, mean ± SD” value in data set [2] (pre-treatment 0.450 ± 0.499) turned out to be 0.575 ± 0.494 proportion correct. Besides, in data set [2] (pre-treatment 0.475 ± 0.499), the “Flanker Task Congruous accuracy, mean ± SD” value was found to be 0.65 ± 0.476 proportion correct and the “Flanker Task Neutral accuracy, mean ± SD” value is listed as 0.65 ± 0.476 proportion correct. Besides, the “Flanker Task Congruous response time, mean ± SD” value in data set [2] (pre-treatment 725.03 ± 130.03) came to 651.93 ± 130.16 milliseconds. The “Flanker Task Neutral response time, mean ± SD” value in data set [2] (pre-treatment 732.18 ± 127.96) came to 688.23 ± 99.19 milliseconds. Also, the “Flanker Task Incongruous response time, mean ± SD” value in data set [2] (pre-treatment 737.38 ± 131.34) is 713.3 ± 102.14 milliseconds. Further, in data set [3], the Side effects entry was “no side effects were registered” and the “Tolerability of DSR treatment” value is reported as “well tolerated”. Moreover, the “CBTT Backward Span Length (2-9)” value in data set [4] (pre-treatment 4) is given as 3.5. Further, the “CBTT Forward Span Length (2-9)” value in data set [4] (pre-treatment 5) was 4. Moreover, the “CBTT Backward Number Correct (0-16)” value in data set [4] (pre-treatment 6) is 5. In addition, the “CBTT Forward Number Correct (0-16)” value in data set [4] (pre-treatment 8) is recorded as 6. Besides, in data set [5] (following DSR treatment, t=2.686, df=113, p=0.0083, F8 channel), the “Current latency of EDB over the right frontal area” value was “significant reduction”. For the same compound, the “EEG extreme delta brush (EDB) pattern” value in data set [5] (post- vs pre-DSR administration (six weeks)) is reported as “attenuation of the EDB pattern”. Also, the “EEG coherence between electrodes” value in data set [5] (post- vs pre-six weeks of D-serine, across all frequency bands) is on record as “Distinct new patterns of EEG coherence”. In addition, in data set [6], the “Effect on NMDAR intracellular localization” value is given as “reversing receptor intracellular localization”.
